What is called MIC is the least concentration at which growth counts as inhibited. Low readings indicate greater potency, high ones weaker potency.

One series relates to Staphylococcus aureus. To be noted: cited from earlier work.
A further series relates to MRSA. The following applies: cited from earlier work.
A short description of series [1]: parallel artificial membrane permeability assay. The format is in vitro ADME. The following applies: 200 μM in PBS pH 7.4, five hours, room temperature.
Series [2] deals with Staphylococcus aureus ATCC6538. Nature of the series: MIC/MBC by micro-dilution broth method. It is filed as cell-based. To be noted: S. aureus ATCC 6538. Background: Broth dilution looks for growth in wells or tubes with falling amounts of substance.
In series [3] the test system is Staphylococcus epidermidis ATCC12228. Nature of the series: MIC/MBC by micro-dilution broth method. The format is cell-based. The following applies: S. epidermidis ATCC 12228.
Series [4] relates to Streptococcus mutans ATCC25175. The experiment in a line: MIC/MBC by micro-dilution broth method. The format is cell-based. The following applies: S. mutans ATCC 25175.
The test system of series [5] is Micrococcus luteus ATCC10240. The experiment in a line: MIC/MBC by micro-dilution broth method. The format is cell-based.
Series [6] relates to Staphylococcus aureus ATCC43300. The experiment in a line: MIC/MBC by micro-dilution broth method. The format is cell-based. To be noted: S. aureus ATCC 43300.

≈ marks a conversion by molar mass, not a printed value.

`O=C1NC(=S)SC1=Cc1ccc(F)c(F)c1F` [5-(2,3,4-trifluorobenzylidene)-rhodanine]: the concentration inhibiting growth in the series on Staphylococcus aureus was 0.5 mg/L; in the series on MRSA, 32 mg/L.
Turning to `O=C(O)CN1C(=O)/C(=C/c2ccc(-c3ccc(N(c4ccccc4)c4ccccc4)cc3)cc2)SC1=S` [5a, (Z)-2-(5-((4′-(Diphenylamino)-(1,1′-biphenyl)-4-yl)methylene)-4-oxo-2-thioxothiazolidin-3-yl)acetic acid], the “ability to penetrate the membrane (PAMPA)” value in series [1] is on record as “none of the tested compounds had the ability to penetrate the cell membrane”.
Still for that read-out and setting: the value for `O=C(O)CN1C(=O)/C(=C/c2ccc(-c3ccc(N(c4ccccc4)c4ccccc4)cc3)c3ccccc23)SC1=S` [5b, (Z)-2-(5-((4-(4-(Diphenylamino)phenyl)naphthalen-1-yl)methylene)-4-oxo-2-thioxothiazolidin-3-yl)acetic acid] was “none of the tested compounds had the ability to penetrate the cell membrane”; that for `O=C(O)CN1C(=O)/C(=C/c2c3ccccc3c(-c3ccc(N(c4ccccc4)c4ccccc4)cc3)c3ccccc23)SC1=S` [5c, (Z)-2-(5-((10-(4-(Diphenylamino)phenyl)anthracen-9-yl)methylene)-4-oxo-2-thioxothiazolidin-3-yl)acetic acid] was “none of the tested compounds had the ability to penetrate the cell membrane”.
Regarding `O=C(O)CN1C(=O)/C(=C/c2ccc(-c3ccc(N(c4ccccc4)c4ccccc4)cc3)cc2)NC1=S` [7a, (Z)-2-(5-((4′-(Diphenylamino)-(1,1′-biphenyl)-4-yl)methylene)-4-oxo-2-thioxoimidazolidin-3-yl)acetic acid], the MIC in series [2] came to 1.95 mg/L (≈ 3.86 µM); in series [3], 1.95 mg/L (≈ 3.86 µM); in series [4] it was 62.5 mg/L (≈ 124 µM); in series [5] (M. luteus ATCC 10240), 1.95 mg/L (≈ 3.86 µM); in series [6], 1.95 mg/L (≈ 3.86 µM). In addition, the MIC/MBC in series [5] (ratio, ATCC 10240) was found to be 16.

The values are drawn from article PMC9076067 (RSC Advances, 2019).
